Patent US20060216299A1, “Cell cycle targets and peptides” (Rigel Pharmaceuticals, Inc., priority 2002, published 2006)
Where no end group is shown, it is not given here.

Test system: A549.tTA cells
Test: Cell tracker assay (Dil) of GFP fusion peptides
Format: cell-based
Settings: for anti-proliferative effect (cell tracker assay, in words): GFP-fused peptides expressed in A549.tTA cells
Method: A549.tTA cells were infected with tet-regulatable retroviruses expressing GFP fusion peptides, stained with the cell tracker dye, Dil, and incubated at 37° C. for five days. After the incubation, fluorescent intensity of GFP and Dil was analyzed with MoFlo. A growth ratio was obtained as the ratio of mean Dil fluorescent intensity for the GFP positive population relative to that of the GFP negative population.
Effect of GFP fused peptides and their mutants. GFP fused peptides (#40, #41, #88 and their mutants) expressing A549.tTA cells were stained with Dil and fluorescent intensity of GFP and Dil was examined with MoFlo. A growth ratio was obtained as described above. Mutated residues were underlined. Amino acid sequences of #40, #41, and #88 were aligned with leucine-rich motifs of HIV-1 Rev (amino acid position 75 to 84, gi|16118296|gb|AAL12672.1|), HTLV-1 Rex (amino acid position 82 to 93, gi|7963889|gb|AAF71372.1), Mitogen-activated protein kinase kinase 1, MAPKK, (amino acid position 33 to 43, gi|5579478|ref|NP_002746.1|), Human homologue of mouse double minute 2, Hdm-2, (amino acid position 190 to 200, gi|4505137|ref|NP_002383.1|), and Protein kinase inhibitor, PKI (amino acid position 38 to 48, gi|203271|gb|AAA40867.1|).
Effect of GFP fused peptides and their mutants. A549.tTA cells were infected with retroviruses encoding GFP fusion peptides (#38 and its mutants) and stained with the cell tracker dye, Dil. After the infection, fluorescent intensity of GFP and Dil was examined with MoFlo. A growth ratio was obtained as the ratio of mean Dil fluorescent intensity for the GFP positive population relative to that of the GFP negative population and data are shown as mean±SE in duplicate. Mutated residues or non-identical residues of the C-terminus of cell division cycle 42 isoform 2, CDC42C, (amino acid position 183 to 191, gi|16357472|ref|NP_426359.1|) to #38 were underlined. As controls, entire GFP-C20 library, dsGFP and GFP fused p21C expressing A549.tTA cells were used.

[1] = Table 2, GFP fusion #38 and mutants in A549.tTA cells, ratio of mean Dil intensity, GFP positive relative to GFP negative, duplicate
[2] = Table 1, GFP fused peptides in A549.tTA cells, ratio of mean Dil fluorescent intensity, GFP positive relative to GFP negative population, five days

Sequence	anti-proliferative effect (cell tracker assay, in words)	Growth Ratio (mean ± SE) [1]	Growth Ratio (mean ± SE) [2]
TSGLLALVQAKRKCCIS (cysteine pairing not given here; also: GFP fusion) [#38(K6A)]	reduced anti-proliferative effect	1.4 ± 0.1	
RLRRICSGILLIRRIAGAFVRPVRP (also: GFP fusion) [#88(L16A/L18A)]			1.1
TAGLLKLVQAKRKCCIS (cysteine pairing not given here; also: GFP fusion) [#38(S2A)]	enhanced	5.5 ± 0.8	
AALEPPETQPKRKCCIF [CDC42C, C-terminal 17 residues of cell division cycle 42 isoform 2, expressed as GFP-fused peptide, reference compound]	no significant anti-proliferative activity	1.3 ± 0.1	
KRRQTSMTDFYHSKRRLIFSKRKP [p21C, reference compound]	significant antiproliferative effect	4.5 ± 0.8	4.5 ± 0.8
QAKRKCCIS ({GFP}-QAKRKCCIS; cysteine pairing not given here; also: fused to GFP C-terminus) [#38NΔ(1-8)]		1.5 ± 0.1	
RWDPTRLLRFRFLRALVRRSRPVRP (also: GFP fusion) [#40(M15A)]			2.0
GRGCIFRWRRGLRGMARAFK (also: GFP fusion) [#41(M16A/L18A)]	reduced the anti-proliferative effect		1.5
RWDPTRLLRFRFARALVRRSRPVRP (also: GFP fusion) [#40(L13A/M15A)]			1.6 ± 0.2
TSALLKLVQAKRKCCIS (cysteine pairing not given here; also: GFP fusion) [#38(G3A)]		2.7 ± 0.2	
RLRRICSGILLIRRILGAFVRPVRP (also: GFP fusion) [#88(118A)]			1.5
TSGLLKLAQAKRKCCIS (cysteine pairing not given here; also: GFP fusion) [#38(V8A)]		2.7 ± 0.2	
RLRRICSGILLARRIAGAFVRPVRP (also: GFP fusion) [#88(I12AILI6A/118A)]			1.1 ± 0.1
TSGLLKAVQAKRKCCIS (cysteine pairing not given here; also: GFP fusion) [#38(L7A)]		2.0 ± 0.2	
TSGLAKLVQAKRKCCIS (cysteine pairing not given here; also: GFP fusion) [#38(L5A)]		1.9 ± 0.2	
GRGCIFRWRRGARGMARAFK (also: GFP fusion) [#41(L12A/M16A/L18A)]	no significant localization or anti-proliferative effect		1.1 ± 0.1
TSGALKLVQAKRKCCIS (cysteine pairing not given here; also: GFP fusion) [#38(L4A)]		2.2 ± 0.1	
TSGLLKLVQAKRKACIS (not fully specified (N-terminus)) [#38(C14A)]		1.1 ± 0.1	
RWDPTRLLRARFARALVRRSRPVRP (also: GFP fusion) [#40(F10A/L13A/M15A)]			1.3 ± 0.1
ASGLLKLVQAKRKCCIS (cysteine pairing not given here; also: GFP fusion) [#38(T1A)]		3.5 ± 0.2	
GRGCIFRWRRGLRGMMRAFK (also: GFP fusion) [#41(L18A)]	partial loss of the anti-proliferative effect		1.7
